Measured values: patent publication EP0076452A2, “Cephalosporin derivatives, process for their preparation and pharmaceutical compositions containing them” (priority 1981, dated 1983)
≈ marks a conversion by molar mass, not a printed value. Where two headings read alike, the source gives them in different places.

Assays:
Escherichia coli 205 [1] = test: Chemotherapeutic efficacy in vivo against systemic infection in mice (ED50); design: species or system Maus; conditions: for ED50: Escherichia coli, 205, sc, read-out: ED50 Escherichia coli 205
Source text: (§1) B. Die chemotherapeutische Wirksamkeit in vivo gegen systemische Infektionen in weiblicher SPF, MF2 Mäusen wurde nach der Methode von Zak, 0. et al., 1979, Drugs Exptl. Clin. Res. 5, 45-59, ermittelt. Die gefundenen ED50-Werte in Milligramm Substanz pro Kilogramm Maus (mg/kg) für eine Anzahl von Mikroorganismen werden für die subcutan (s.c.) applizierten Testverbindungen in der Tabelle 2 angegeben.

[2] = test system: Staphylococcus aureus 10 B; test: as above; design: species or system Maus; conditions: for ED50: Staphylococcus aureus, 10B, sc, read-out: ED50 Staphylococcus aureus 10 B; for ED50 Staphylococcus aureus 10 B: s.c.
Source text: as §1

Escherichia coli 205 [3] = test: Antibiotic activity in vitro, agar dilution method in DST agar (MIC); type: cell-based; conditions: for MIC Escherichia coli 205: in vitro
Source text: (§2) A. Die antibiotische Aktivität der Testverbindungen in vitro wurde durch die Agarverdünnungsmethode nach Ericsson, H.M., und Sherris, S.C., 1971, Acta Path. Microb. Scand. Section B, Suppl. No. 217, Bd. 1-90, in DST Agar ermittelt. Die gefundenen, das Wachstum der Testorganismen noch hemmenden Minimalkonzentrationen (MIC = minimum inhibiting concentrations) werden in Mikrogramm pro Mililiter ([…]) für die geprüften Verbindungen in der Tabelle 1 angegeben.

Proteus rettgeri 856 = test: as above; type: cell-based; conditions: for MIC Proteus rettgeri 856: in vitro
Source text: as §2

[4] = test system: Streptococcus pyogenes Aronson; test: as above; type: cell-based; conditions: for MIC: Streptococcus pyogenes, read-out: MIC Streptococcus pyogenes Aronson
Source text: as §2

[5] = s.c., systemic infection, female SPF MF2 mice
[6] = systemic infection, female SPF MF2 mice
[7] = Escherichia coli, 205, in vitro, agar dilution, DST Agar, read-out: MIC Escherichia coli 205
[8] = Providencia rettgeri, 856, in vitro, agar dilution, DST Agar, read-out: MIC Proteus rettgeri 856
[9] = in vitro, agar dilution, DST Agar
[10] = agar dilution, DST Agar, listed as 8

SMILES	ED50 (Escherichia coli 205 [1]; [5])	ED50 [2, 6]	MIC (Escherichia coli 205 [3]; [7])	MIC (Proteus rettgeri 856; [8])	MIC [4, 9]	further results
CO/N=C(\C(=O)N[C@@H]1C(=O)N2C(C(=O)O)=C(CSc3nnnn3CCN(C)C)CS[C@H]12)c1coc(N)n1 [Testverbindung 3]	1.7 mg/kg	28 mg/kg	0.1 µg/mL (≈ 0.181 µM)	0.02 µg/mL (≈ 0.0362 µM)	0.02 µg/mL (≈ 0.0362 µM)	
CC(=O)OCC1=C(C(=O)O)N2C(=O)[C@@H](NC(=O)/C(=N\O)c3coc(N)n3)[C@H]2SC1 [Testverbindung 6]	1 mg/kg	1.35 mg/kg	0.1 µg/mL (≈ 0.235 µM)	0.02 µg/mL (≈ 0.047 µM)		
CON=C(C(=O)NC1C(=O)N2C(C(=O)[O-])=C(C[n+]3ccc(C(=O)O)cc3)CSC12)c1coc(N)n1 (stereo not shown) [Testverbindung 17, 3-(4-Carboxylatpyridiniomethyl)-7ß-[2-(2-amino-4-oxazolyl)-2-Z-methoxyiminoacetylamino]-3-cephem-4-carboxylat-natriumsalz]	2 mg/kg	5.5 mg/kg	0.5 µg/mL (≈ 0.995 µM)		0.02 µg/mL (≈ 0.0398 µM)	
CO/N=C(\C(=O)N[C@@H]1C(=O)N2C(C(=O)O)=CCS[C@H]12)c1coc(N)n1 [Testverbindung 14]	9 mg/kg	30 mg/kg	0.2 µg/mL (≈ 0.544 µM)		0.01 µg/mL (≈ 0.0272 µM)	
CC(C)(ON=C(C(=O)NC1C(=O)N2C(C(=O)[O-])=C(C[n+]3ccccc3)CSC12)c1coc(N)n1)C(=O)O (stereo not shown) [Testverbindung 9, 3-Pyridiniomethyl-7ß-[2-(2-amino-4-oxazolyl)-2-Z-(2-carboxy-prop-2-yloxyimino)-acetylamino]-3-cephem-4-carboxylat-natriumsalz]	4.4 mg/kg	> 30 mg/kg	0.2 µg/mL (≈ 0.377 µM)	0.01 µg/mL (≈ 0.0188 µM)	0.2 µg/mL (≈ 0.377 µM)	
CO/N=C(\C(=O)N[C@@H]1C(=O)N2C(C(=O)O)=C(CSc3nnnn3C)CS[C@H]12)c1coc(N)n1 [Testverbindung 1]	1.5 mg/kg	12 mg/kg	0.1 µg/mL (≈ 0.202 µM)			
CO/N=C(\C(=O)N[C@@H]1C(=O)N2C(C(=O)O)=C(COC(C)=O)CS[C@H]12)c1coc(N)n1 [Testverbindung 13]	1 mg/kg	5 mg/kg	0.1 µg/mL (≈ 0.228 µM)		0.01 µg/mL (≈ 0.0228 µM)	
CC(C)(ON=C(C(=O)NC1C(=O)N2C(C(=O)[O-])=C(C[n+]3ccc(C(N)=O)cc3)CSC12)c1coc(N)n1)C(=O)O (stereo not shown) [Testverbindung 10]	> 30 mg/kg	> 30 mg/kg	4 µg/mL (≈ 6.97 µM)	0.2 µg/mL (≈ 0.349 µM)	0.02 µg/mL (≈ 0.0349 µM)	
CC(C)(O/N=C(\C(=O)N[C@@H]1C(=O)N2C(C(=O)[O-])=C(C[n+]3ccc(C(N)=O)cc3)CS[C@H]12)c1coc(N)n1)C(=O)O [Testverbindung 10]	1.6 mg/kg	> 30 mg/kg	0.5 µg/mL (≈ 0.872 µM)	0.5 µg/mL (≈ 0.872 µM)	0.2 µg/mL (≈ 0.349 µM)	
CC(C)(O/N=C(\C(=O)N[C@@H]1C(=O)N2C(C(=O)[O-])=C(C[n+]3ccccc3)CS[C@H]12)c1coc(N)n1)C(=O)O [Testverbindung 9]	5.6 mg/kg	> 30 mg/kg	1 µg/mL (≈ 1.88 µM)	0.2 µg/mL (≈ 0.377 µM)	0.5 µg/mL (≈ 0.942 µM)	
CO/N=C(\C(=O)N[C@@H]1C(=O)N2C(C(=O)[O-])=C(C[n+]3ccc(C(N)=O)cc3)CS[C@H]12)c1coc(N)n1 [Testverbindung 5, 3-(4-Carbamoylpyridiniomethyl)-7β-[2-(2-amino-4-oxazolyl)-2-Z-methoxyiminoacetylamino]-3-cephem-4-carboxylat]					0.02 µg/mL (≈ 0.0399 µM)	ED50 Escherichia coli 205 (Escherichia coli 205 [1]; s.c., systemic infection, female SPF MF2 mice, listed as 8): >30 mg/kg; ED50 Staphylococcus aureus 10 B ([2]; systemic infection, female SPF MF2 mice, listed as 8): >30 mg/kg; MIC Escherichia coli 205 (Escherichia coli 205 [3]; [10]): 4 µg/mL (≈ 7.98 µM); MIC Proteus rettgeri 856 (Proteus rettgeri 856; [10]): 1 µg/mL (≈ 1.99 µM)
CO/N=C(\C(=O)N[C@@H]1C(=O)N2C(C(=O)OCOC(=O)C(C)(C)C)=C(COC(N)=O)CS[C@H]12)c1coc(N)n1 [Beispiel 18, 3-Carbamoyloxymethyl-7ß-[2-(2-amino-4-oxazolyl)-2-Z-methoxyimino-acetylamino]-3-cephem-4-carbonsäure-pivaloyloxymethylester]						ED50 Escherichia coli 205 (Escherichia coli 205 [1]; [5]): >30 mg/kg; ED50 Staphylococcus aureus 10 B [2, 6]: 8 mg/kg; MIC Escherichia coli 205 (Escherichia coli 205 [3]; agar dilution, DST Agar): 0,1 µg/ml; MIC Proteus rettgeri 856 (Proteus rettgeri 856; agar dilution, DST Agar): 0,01 µg/ml; MIC Streptococcus pyogenes Aronson [4, 9]: 0,02 µg/ml
CO/N=C(/C(=O)N[C@@H]1C(=O)N2C(C(=O)O)=C(CSc3nnnn3CCN(C)C)CS[C@H]12)c1coc(N)n1 [Testverbindung 4]			8 µg/mL (≈ 14.5 µM)	2 µg/mL (≈ 3.62 µM)	0.05 µg/mL (≈ 0.0905 µM)	
CO/N=C(\C(=O)N[C@@H]1C(=O)N2C(C(=O)O)=C(CSc3nnnn3CC(=O)O)CS[C@H]12)c1coc(N)n1 [Testverbindung 2]	0.63 mg/kg	55 mg/kg	0.5 µg/mL (≈ 0.927 µM)		0.1 µg/mL (≈ 0.185 µM)	
CO/N=C(\C(=O)N[C@@H]1C(=O)N2C(C(=O)[O-])=C(C[n+]3ccc(C(=O)O)cc3)CS[C@H]12)c1coc(N)n1 [Testverbindung 17]		> 30 mg/kg	0.5 µg/mL (≈ 0.995 µM)	0.02 µg/mL (≈ 0.0398 µM)	0.05 µg/mL (≈ 0.0995 µM)	
CON=C(C(=O)NC1C(=O)N2C(C(=O)[O-])=C(C[n+]3cccc(Cl)c3)CSC12)c1coc(N)n1 (stereo not shown) [Testverbindung 16, 3-(3-Chlorpyridiniomethyl)-7ß-[2-(2-amino-4-oxazolyl)-2-Z-methoxyiminoacetylamino]-3-cephem-4-carboxylat]						ED50 (Escherichia coli 205 [1]): 14 mg/kg; ED50 [2]: 30 mg/kg; MIC (Escherichia coli 205 [3]; Escherichia coli, 205, read-out: MIC Escherichia coli 205): 8 µg/mL (≈ 16.2 µM); MIC (Proteus rettgeri 856; Providencia rettgeri, 856, read-out: MIC Proteus rettgeri 856): 0.1 µg/mL (≈ 0.203 µM); MIC [4]: 0.2 µg/mL (≈ 0.406 µM)
CO/N=C(\C(=O)N[C@@H]1C(=O)N2C(C(=O)[O-])=C(C[n+]3ccc(C(N)=O)cc3)CS[C@H]12)c1coc(N)n1 [Testverbindung 5]						ED50 Escherichia coli 205 (Escherichia coli 205 [1]; [5]): 2,4 mg/kg; ED50 Staphylococcus aureus 10 B [2, 6]: 5,5 mg/kg; MIC Escherichia coli 205 (Escherichia coli 205 [3]; agar dilution, DST Agar): 0,2 µg/ml; MIC Proteus rettgeri 856 (Proteus rettgeri 856; agar dilution, DST Agar): 0,02 µg/ml
CO/N=C(\C(=O)N[C@@H]1C(=O)N2C(C(=O)O)=C(CSc3nnnn3CCN(C)C)CS[C@H]12)c1coc(N)n1.Cl.Cl [Testverbindung 3, 3-[1-(2-Dimethylaminoäthyl)-1H-tetrazol-5-ylthiomethyl]-7ß-[2-(2-amino-4-oxazolyl)-2-Z-methoxyiminoacetylamino]-3-cephem-4-carbonsäure-dihydrochlorid]						ED50 Escherichia coli 205 (Escherichia coli 205 [1]; [5]): >30 mg/kg; ED50 Staphylococcus aureus 10 B [2, 6]: >30 mg/kg; MIC Escherichia coli 205 (Escherichia coli 205 [3]; agar dilution, DST Agar): 0,2 µg/ml; MIC Proteus rettgeri 856 (Proteus rettgeri 856; agar dilution, DST Agar): 0,01 µg/ml; MIC Streptococcus pyogenes Aronson [4, 9]: 0,05 µg/ml
